Values quoted from earlier work, collected in US20100151056A1, “DIETARY SUPPLEMENTS FOR DECREASING THE LATENT FOREIGN DNA LOAD” (priority 2008, published 2010).
pEC50: −log10 of the molar value. Read-outs that look alike come from different tables or passages of the source.

How the values were obtained:
[1] = test system: HBV cccDNA in HepG2-N10 cells; settings: 22.9 ug/ml
[2] = test system: EBV immediate-early protein Rta in P3HR1 cells
LT1/LT2 promoter = settings: BJAB cells, GA-treated vs untreated
B cells = settings: 3 and 4 mM
[3] = test system: KSHV-positive and uninfected B cells
caspase cascade = settings: KSHV-positive B cells untreated and GA-treated, ELISA
[4] = test system: KSHV latent genes (LANA-1, v-cyclin, v-FLIP)
AIF = settings: KSHV-positive B cells, GA for 4 days
[5] = test system: LANA-1, v-cyclin, and v-FLIP proteins
[6] = test system: Epstein-Barr virus in Raji cells; settings: Raji cells superinfected with P2HR1 (LS) virus; read-out: concentration inhibiting EBV genome copy number and antigen expression by 50% (EC50)
cdk6 = settings: BC-1, BCBL-1 and BC-3 cells, Western blot

SMILES: O=C(O[C@@H]1Cc2c(O)cc(O)cc2O[C@@H]1c1cc(O)c(O)c(O)c1)c1cc(O)c(O)c(O)c1 [EGCG, Epigallocatechin gallate]
- reduction of HBV cccDNA concentration [1]: 60%
- P3HR1 cells expressing Rta ([2]; 70 mM EGCG): 9.8%
- P3HR1 cells expressing Rta ([2]; 100 mM EGCG): 0.5%

SMILES: CC1(C)[C@@H](O[C@H]2O[C@H](C(=O)O)[C@@H](O)[C@H](O)[C@H]2O[C@@H]2O[C@H](C(=O)O)[C@@H](O)[C@H](O)[C@H]2O)CC[C@]2(C)[C@H]3C(=O)C=C4[C@@H]5C[C@@](C)(C(=O)O)CC[C@]5(C)CC[C@@]4(C)[C@]3(C)CC[C@@H]12 [GA, glycyrrhizic acid]
- catalase activity increase (catalase; BC-1): 3 fold
- catalase activity increase (catalase; BC-3): 4 fold
- catalase activity increase (catalase; BCBL-1): 2 fold
- LT1/LT2 promoter activity (luciferase expression) (LT1/LT2 promoter): does not affect
- toxicity at the tested levels (B cells): not being toxic
- cells blocked in G1 ([3]; KSHV-positive B cells, after 6 days GA): 99%
- cells blocked in G1 ([3]; uninfected cells, untreated or following GA): 25-50%
- phosphorylated form of p53 (p53; BC-3 cells transfected with pLPCX/LANA-1, 4 mM GA for 4 days): very low concentration
- p53 phosphorylated at Ser15 (p53; KSHV-positive B cells following GA): high concentration
- activation of the caspase cascade (caspase cascade): no activation
- LT1 transcripts (LANA-1 probe) ([4]; GA 3 and 4 mM, BCBL-1 2 days, BC-3 3 days, BC-2 and BC-1 6 days): dose-dependent decrease
- LT2 transcripts (v-FLIP and v-cyclin probes) ([4]; GA-treated KSHV-positive B cells): increase
- AIF localisation (AIF): diffuse nuclear staining
- apoptosis in BJAB cells (KSHV-positive B cells; KSHV-negative BJAB control cells): did not result in apoptosis
- apoptosis (TUNEL-positive cells) (KSHV-positive B cells; KSHV-positive cells, FACS): 80-95%
- disruption of mitochondrial membranes or DNA condensation (KSHV-positive B cells; uninfected B cells treated with GA): no disruptions
- LANA-1 expression ([5]; KSHV positive cells, BCBL-1, BC-3, BC-1 treated 2, 3, 6 days): decreased
- cells over-expressing v-cyclin ([5]; KSHV-positive B cells following GA treatment, FACS): 35-50%
- pEC50 [6]: ~5.30
- increase of cdk6 expression (cdk6): 8- to 11 fold

SMILES: CCCCCCCCCCCCCC(=O)O[C@@H]1[C@@H](C)[C@@]2(O)[C@@H](C=C(CO)C[C@]3(O)C(=O)C(C)=C[C@@H]23)[C@@H]2C(C)(C)[C@]12OC(C)=O [TPA, 12-O-tetradecanoyl-phorbol-13-acetate, reference compound]
- disruption of mitochondrial membranes or DNA condensation (KSHV-positive B cells; TPA treatment (latent to lytic switch)): did not disrupt

SMILES: CC(/C=C/C(=O)NO)=C\[C@@H](C)C(=O)c1ccc(N(C)C)cc1 [TSA, reference compound]
- P3HR1 cells expressing Rta ([2]; following treatment with TSA): 23.4%

SMILES: C[C@H]1[C@H](OC(=O)CCC(=O)O)O[C@@H]2O[C@@]3(C)CC[C@H]4[C@H](C)CC[C@@H]1[C@@]24OO3 [artesunate, Artesunate]
- viremia after completion of therapy (CMV; 76 days after completion of therapy): no increase in viremia
- viral decay T 1/2 (CMV; CMV load kinetics during treatment): 22 to 45.6 h
- decrease of viral DNA load (CMV; by day 7, oral 100 mg/day): 1.7-2.1 log
- adverse effects (CMV; first 30 days of treatment): no adverse effects
- time to rapid reduction in viral load and improved hematopoiesis (CMV; oral 100 mg/day): ≤ 10 days

SMILES: Nc1nc(O)c2ncn(COC(CO)CO)c2n1 [ganciclovir]
- reduction of viral DNA load (CMV; by day 7, initial ganciclovir treatment of the same patient): 1 log
